# Measured values as given in patent US5888504A, “Natural composition for combatting fungi” (Van den Bergh Foods Co., Division of Conopco, Inc., priority 1995, dated 1999).
# “Also recorded” adds a separate entry of the source.
# Legend:
# Format in all cases: cell-based
# Paecilomyces variotii [1] = assay: Extent of outgrowth of Paecilomyces variotii in malt extract broth in serum bottles; details: 1 μM carvacrol, absence of enzyme; observed during ten days
# Description: Solutions (30 ml) were prepared containing […] dissolved in malt extract broth. Novozyme™234 was present in concentrations of 1, 0.1 and 0 mg/ml. For comparison a solution was prepared containing 1 mg/ml of Novozyme™, but without carvacrol and one in which both enzyme and carvacrol were absent. 50 ml serum bottles filled with the solutions were inoculated with 1000 spores of Paecilomyces variotii. The height of the bars of FIG. 5 indicates the extent of outgrowth of the fungi observed during ten days. The highest bars ("100") indicate full outgrowth of the fungi, which occurs in solutions without carvacrol and with 1 mg/ml or less enzyme. Observed growth inhibition is expressed by the "50" bars. The presence of 1 μM carvacrol causes inhibition of growth, even in the absence of enzyme. When 1 mg/ml of enzyme is present together with 1 μM of carvacrol even germination of the fungal spores ("25" bars) does no longer occurs.
# Aspergillus niger = assay: Outgrowth of Aspergillus niger spores in malt extract broth/agar, microtitre plate, OD 620 nm; details: no enzyme
# Description: An aqueous solution (demineralised water) was prepared containing 0.2 wt. % of the antifungal substance NovoZyme™ 234 and 0.002 wt. % of nisin. 75 μl of the solution were warmed to 20° C. and added to the well of a microtitre plate. Then 75 μl of a solution containing 4 wt. % of malt extract broth (ex Oxoid), 0.75 wt. % of agar (ex Difco) and 1000 spores of the fungus Aspergillus niger was heated to 25° C. and added to the test solution in the well (pH 5.1).
# The procedure was repeated with solutions containing 0.004, 0.008, 0.016, 0.032 and 0.064 wt. % of nisin. The contents of the wells were thoroughly mixed and 75 μl of paraffin oil was loaded on top of the mixture. Finally, the plates were sealed with an oxygen permeable foil (Merlin).
# During 360 hours the OD 620 nm was measured at regular intervals using a Multiscan devise MCC 340. Fungal outgrowth was defined when an OD (optical density) increase of at least 0.1 occurred.
# […] 75 μl of the solution were warmed to 20° C. and added to the well of a microtitre plate. Then 75 μl of a solution containing 4 wt. % malt extract broth (ex Oxoid), 0.75 wt. % agar (ex Difco) and 1000 spores of the fungus Aspergillus niger was heated to 25° C. and added to the test solution in the well (pH 5.1). […] During 360 hours the OD 620 nm was measured at regular intervals using a Multiscan devise MCC 340. […]
# Paecilomyces variotii [2] = assay: Outgrowth of Paecilomyces variotii spores, microtitre plate (Example 2 repeated); details: histatin without enzyme
# Description: An aqueous solution (demineralised water) was prepared containing 0.2 wt. % of the antifungal substance NovoZyme™ 234 and 0.002 wt. % of histatin. 75 μl of the solution were warmed to 20° C. and added to the well of a microtitre plate. Then 75 μl of a solution containing 4 wt. % malt extract broth (ex Oxoid), 0.75 wt. % agar (ex Difco) and 1000 spores of the fungus Aspergillus niger was heated to 25° C. and added to the test solution in the well (pH 5.1). The procedure was repeated with solutions containing 0.004, 0.008, 0.016, 0.032 and 0.064 wt. % of histatin. The contents of the wells were thoroughly mixed and 75 μl of paraffin oil was loaded on top of the mixture. Finally, the plates were sealed with an oxygen permeable foil (Merlin). During 360 hours the OD 620 nm was measured at regular intervals using a Multiscan devise MCC 340. Fungal outgrowth was defined when an OD increase of at least 0.1 occurred.
# Example 2 is repeated with the fungus Paecilomyces variotii.
# Penicillium roqueforti = assay: Outgrowth of Penicillium roqueforti inoculated on processed cheese; details: nisin 0.05 wt. % or NovoZyme 234 2 wt. % singly
# From the text: The surface of processed cheese was inoculated in the centre with Penicillium roqueforti. Admixture of nisin of the lytic enzymes was done in a laminar air flow cabinet. The samples were observed during 16 days (see FIG. 7).
# Fungal growth is expressed as the diameter of the colonies. When NovoZyme™ 234 (2 wt. %) was present fungal outgrowth was considerably delayed and became visible only after 12 days.
compound,measurement,setting,value
Cc1ccc(C(C)C)cc1O [carvacrol],extent of outgrowth (height of bar),Paecilomyces variotii [1],50
histatin,retarding fungal growth (time needed for outgrowth),"Aspergillus niger; histatin 0 to 0.032 wt. %, particularly at 0.008 wt. % and higher",slightly active in retarding fungal growth
same,concentration at which fungal growth inhibition is shown,Paecilomyces variotii [2],≥ 0.004 wt. %
nisin,effect on postponing the onset of fungal growth (time needed for outgrowth),"Aspergillus niger; nisin 0 to 0.032 wt. %, pH 5.1, followed 360 hours",no fungal growth inhibition has been observed; also recorded: no substantial effect
same,time after which fungal outgrowth showed,Penicillium roqueforti,4 days
